The source of these data is patent US20060293242A1, “Transporting of taxoid derivatives through the blood brain barrier” (priority 2001, published 2006).

What is called solubility is how much of the substance goes into solution per volume. Higher therefore signals much dissolved substance.

The test system of data set [1] is SK-N-SH (neuroblastome) cells. The experiment in a line: Cytotoxicity assay (MTT), SK-N-SH cells. The class given is cell-based. As to conditions: Homo sapiens, MTT test, read-out: IC50 (concentration resulting in 50% inhibition of growth). The protocol:
(§1) 9 L (glioblastome), MCF-7 and MDA-MB-435 (breast cancer), and SK-N-SH (neuroblastome) cells were obtained commercially from ATCC. The cells are seeded at approximately 10^4 cells per well, 24 h before addition of the products. They are then at 60-80% confluence on the day of the experiment. The cells are maintained in culture at 37° C. in an atmosphere at 95% humidity and 5% CO2 in an OptiMem® medium.
(§2) The cells are incubated either with free Taxol or with the vectorized Taxol at increasing concentrations for 48 hours to 72 hours. At the end of the culturing period, MTT (3-(4,5-dimethylthiazole-2-yl)-2,5-diphenyltetrazolium bromide) is added to the wells and the culture plates are then incubated for 4 hours in an incubator. The resulting crystalline deposit of formazan is then dissolved by addition of 200 μl of DMF/SDS. The optical density (OD) is measured at 550 nm (reference 630 nm) using a microplate reader. […]
(§3) The sensitivity of the 9L, MCF-7, MDA-MB-435 and SK-N-SH cells to free Taxol and to the vectorized Taxol was measured by the MTT test under the experimental conditions defined above for which the relationship between the optical density and the number of viable cells is linear.
(§4) These cells are incubated with increasing concentrations of product and, after […] of incubation, cell survival is measured by the MTT test.

The test system of the next data set is 9 L (glioblastome) cells. As to the kind of experiment: Cytotoxicity assay (MTT), 9L cells. The class given is cell-based. As to conditions: for IC50: 9L cells, MTT test, read-out: IC50 (concentration resulting in 50% inhibition of growth). The protocol: as §1
The cells are incubated either with free Taxol or with the vectorized Taxol at increasing concentrations for 48 hours to 72 hours. At the end of the culturing period, MTT (3-(4,5-dimethylthiazole-2-yl)-2,5-diphenyltetrazolium bromide) is added to the wells and the culture plates are then incubated for 4 hours in an incubator. The resulting crystalline deposit of formazan is then dissolved by addition of 200 μl of DMF/SDS. The optical density (OD) is measured at 550 nm (reference 630 nm) using a microplate reader.
Graphic representation of the percentages of OD of the treated wells as a function of the concentration of products makes it possible to determine the IC50. This corresponds to the concentration of the product which inhibits 50% of growth.
as §3, §4

Data set [2] relates to MDA-MB-435 (breast cancer) cells. As to the kind of experiment: Cytotoxicity assay (MTT), MDA-MB-435 cells. In kind it is cell-based. The conditions noted are these: Homo sapiens, MTT test, read-out: IC50 (concentration resulting in 50% inhibition of growth). The protocol:
as §1, §2, §3, §4
Background: Formazan colour is commonly taken as a measure of viable cells.

Data set [3] concerns MCF-7 (breast cancer) cells. As to the kind of experiment: Cytotoxicity assay (MTT), MCF-7 cells. In kind it is cell-based. As to conditions: Homo sapiens, MCF7, MTT test, read-out: IC50 (concentration resulting in 50% inhibition of growth). How it is done:
as §1, §2, §3, §4

Another data set concerns blood/brain barrier. As to the kind of experiment: In situ brain perfusion (BBB penetration, Kin). The class given is in vivo. As to conditions: mouse, in situ brain perfusion for 60 seconds in buffer, 14C-labelled Taxol, FIG. 2. How it is done:
Mice (20-25 g, Iffa-Credo, Arbresle, France) are anesthetized. After exposure of the common carotid, the right external carotid artery is ligated at the level of the bifurcation with the internal carotid and the common carotid is ligated between the heart and the site of implantation of the catheter (polyethylene catheter, ID: 0.76). This catheter, prefilled with a solution of heparin (100 units/ml), is inserted into the common carotid. The mice are perfused with the perfusion buffer (128 mM NaCl, 24 mM NaHCO3, 4.2 mM KCl, 2.4 mM NaH2PO4, 1.5 mM CaCl2, 0.9 mM MgSO4 and 9 mM D-glucose) This buffer is filtered and then a mixture containing 95% 02/5% CO2 is bubbled in order to maintain the pH close to 7.4 and to provide the brain with oxygen during the perfusion.
The mice are perfused with the buffer containing free Taxol or vectorized Taxol. In each product, the Taxol is radiolabeled with carbon 14 (specific activity: 55 mCi/mmole, Sigma, France). Just before the beginning of perfusion, the heart is stopped by sectioning the ventricles, in order to avoid reflux of the perfusate during perfusion. The right hemisphere is then perfused at a rate of 10 ml/min for 60 seconds, after which the mouse is decapitated. The amount of radioactivity in the right hemisphere is then measured and the brain penetration (Kin) is calculated. […]

SMILES strings stand for the structures. Residues, ends and D or L forms follow the SMILES beside them. *: point of attachment. Paclitaxel(2'-O-succinyl) = CC(=O)O[C@H]1C(=O)[C@@]2(C)[C@H]([C@H](OC(=O)c3ccccc3)[C@]3(O)C[C@H](OC(=O)[C@H](OC(=O)CCC(=O)*)[C@@H](NC(=O)c4ccccc4)c4ccccc4)C(C)=C1C3(C)C)[C@]1(OC(C)=O)CO[C@@H]1C[C@@H]2O

Consider `CC(=O)O[C@H]1C(=O)[C@@]2(C)[C@H]([C@H](OC(=O)c3ccccc3)[C@]3(O)C[C@H](OC(=O)[C@H](O)[C@@H](NC(=O)c4ccccc4)c4ccccc4)C(C)=C1C3(C)C)[C@]1(OC(C)=O)CO[C@@H]1C[C@@H]2O` [Free Taxol, paclitaxel], for which the IC50 in data set [1] was 87 nM; in the data set with 9 L (glioblastome) cells, 3500 nM; in data set [2], 95 nM; in data set [3] it was 42 nM.
As for `CC(=O)O[C@H]1C(=O)[C@@]2(C)[C@H]([C@H](OC(=O)c3ccccc3)[C@]3(O)C[C@H](OC(=O)[C@H](OC(=O)CCC(=O)N[C@@H](CCCNC(=N)N)C(=O)N[C@@H](CCCNC(=N)N)C(=O)N[C@@H](CC(C)C)C(=O)N[C@@H](CO)C(=O)N[C@@H](Cc4ccc(O)cc4)C(=O)N[C@@H](CO)C(=O)N[C@@H](CCCNC(=N)N)C(=O)N[C@@H](CCCNC(=N)N)C(=O)N[C@@H](CCCNC(=N)N)C(=O)N[C@@H](Cc4ccccc4)C(=O)O)[C@@H](NC(=O)c4ccccc4)c4ccccc4)C(C)=C1C3(C)C)[C@]1(OC(C)=O)CO[C@@H]1C[C@@H]2O` [Taxol-SynB3] ({Paclitaxel(2'-O-succinyl)}-RRLSYSRRRF-OH; N-terminus and C-terminus assumed), in the data set on blood/brain barrier, the “increase of passage into the brain (Kin) versus free Taxol” value is “approximately 12 fold”. Further, the “times more active than the free Taxol” value in the data set with 9 L (glioblastome) cells (9 L cell line, ratio of IC50) is recorded as “approximately 5 times”. Moreover, the IC50 with 9 L (glioblastome) cells is 600 nM. In addition, the solubility in “physchem” was more than 10000 µg/mL.
